# Test results published in patent publication US20220267390A1, “MPS MODIFIED PEPTIDES AND USE THEREOF” (The Regents of the University of California, priority 2019, published 2022).
# Where no end group is shown, it is not given here.
# How the values were obtained:
# [1] = tested on: primary IPF fibroblast cells; assay: Cell motility and colony-forming ability of primary IPF fibroblasts; assay type: cell-based, human
# Method: FIGS. 4A-4B: MARCKS inhibition using MPS peptide reduced primary IPF fibroblast cell motility (FIG. 4A) and colony-forming ability (FIG. 4B) n=4; *, p<0.05.
# An in vitro cell migration assay was performed as previously described^13, 14 using Transwell chambers (8-μm pore size; Costar, Cambridge, Mass.). Briefly, 2×10^4 cells were seeded on top of the polycarbonate filters, and 0.5 ml of growth medium with scrambled or MPS peptide (100 μM) was added to both the upper and lower wells. After incubation for 20 hours, filters were swabbed with a cotton swab, fixed with methanol, and then stained with Giemsa solution (Sigma). The cells attached to the lower surface of the filter were counted under a light microscope (10× magnification).
# Cells were seeded onto 96-well plates at a density of 5-10×10^3 cells per well and cultured for the indicated treatment. Cell proliferation was evaluated using a MTS assay kit (Promega, Madison, Wis.). Twenty microliters of the combined MTS/PMS solution was added into each well, incubated for 3 hours at 37° C., and the absorbance was measured at 490 nm by using an ELISA reader. […] After 72 hours, both attached and detached cells were collected and then stained with 0.2% trypan blue (0.1% final concentration), and the number of trypan blue-positive and -negative cells was counted using a haemocytometer under low-power microscopy. […]
# LG704 oncospheres = assay: RNA-seq of LG704 oncospheres; assay type: cell-based, human; conditions: 50 μM
# Method: These genes were then analyzed with GSEA to determine which functional pathways were most affected by MARCKS. Right, Heat map of cancer-stemness markers associated with MARCKS activity.
# Targeting the MARCKS PSD is associated with inhibition of stem-like cell properties. In light of the importance of the PSD in the functionality of MARCKS protein, Applicant designed a 25-mer MPS peptide to mimic the MARCKS phosphorylation site domain (PSD). […] Applicant's initial studies have shown that elevation of phospho-MARCKS in lung cancer spheres acted in parallel with increased stemness markers, such as CD133, Oct3/4, SOX2 and Nanog (data not included). The oncospheres were derived from high MARCKS-expressing lung cancer cell lines (H1975 and CL1-5) and primary lung cancer cells (LG704 and LC3: pleural effusion cells isolated from patients with advanced stage) in non-adherent serum-free culture conditions as described previously^30-32. Flow cytometry confirmed that ˜80% of LG704 oncosphere cells are CD133-positive, a major lung CSCs marker. […] Through a comparison of transcriptome profiling between PBS- and MPS-treated LG704 oncospheres by RNA-seq, Applicant identified a total of 352 coding genes altered by MARCKS inhibition (FIG. 15, left). […] The sphere-forming ability was assessed by counting the number and size of tumor spheres (oncospheres) under a microscope. […]
# [2] = tested on: phospho-MARCKS, phospho-AKT and α-SMA; assay: Western blot in lung fibroblast cells isolated from bleomycin-treated mice; assay type: cell-based; conditions: 100 μM, 48 hours, fibroblasts from bleomycin-treated mice
# Method: (§1) FIGS. 7A-7B: (FIG. 7A) Western blots analysis of phospho-MARCKS, phospho-AKT and α-SMA expression in lung fibroblast cells isolated from saline- or bleomycin-treated mice after 48 hours of treatment with control or MPS peptides (100 μM). (FIG. 7B) Effect of MPS peptide on cell viability of lung fibroblasts isolated from saline- (mFb-Saline) or bleomycin-treated (mFb-Bleomycin) mice (n=4; *, p<0.05).
# MPS peptide potentially serves as an antifibrotic agent in bleomycin-induced pulmonary fibrosis. Bleomycin remains the standard agent for induction of experimental pulmonary fibrosis in animals^23. Thus, 8-week-old female C57BL/6J mice received saline or bleomycin intratracheally (33 μg in […] of saline) as previously described^23. Lung specimens from bleomycin- or saline-treated mice were collected and subjected to immunofluorescence staining. […] Next, lung fibroblast cells isolated from saline- or bleomycin-treated mice (two mice fibroblast cell lines were gifts from Dr. Sem H. Phan, University of Michigan School of Medicine, MI) were incubated with either 100 μM control or MPS peptide for 48 hours. […] The feasibility of the MPS peptide as an antifibrotic agent in a bleomycin-induced pulmonary fibrosis was tested. […] Saline- and bleomycin-exposed mice then were treated with either PBS or MPS peptide (28 mg/kg) intraperitoneally every other day. To ascertain the therapeutic effect of MPS peptide on pulmonary fibrosis, MPS was administered intraperitoneally during the “fibrotic” phase of the model. […]
# Western blot analyses and the preparations of whole-cell lysates have been previously described^14, 16, 27 For whole cell lysates, cells were lysed in a lysis buffer (50 mM Tris-HCl (pH 7.4), 1% Triton X-100, 10% glycerol, 150 mM NaCl, 1 mM EDTA, 20 μg/ml leupeptin, 1 mM PMSF and 20 μg/ml aprotinin) and separated by SDS-PAGE. […] The cells were mounted onto slides and visualized using fluorescence microscopy (model Axiovert 100; Carl Zeiss, Oberkochen, Germany) or a Zeiss LSM510 laser-scanning confocal microscope image system.
# [3] = tested on: lung fibroblasts isolated from bleomycin-treated mice; assay: MTT cell viability of lung fibroblasts from saline- or bleomycin-treated mice; assay type: cell-based; conditions: fibroblasts from bleomycin-treated mice compared to those from saline-treated mice
# Method: as §1
# MPS peptide potentially serves as an antifibrotic agent in bleomycin-induced pulmonary fibrosis. Bleomycin remains the standard agent for induction of experimental pulmonary fibrosis in animals^23. Thus, 8-week-old female C57BL/6J mice received saline or bleomycin intratracheally (33 μg in […] of saline) as previously described^23. Lung specimens from bleomycin- or saline-treated mice were collected and subjected to immunofluorescence staining. […] Next, lung fibroblast cells isolated from saline- or bleomycin-treated mice (two mice fibroblast cell lines were gifts from Dr. Sem H. Phan, University of Michigan School of Medicine, MI) were incubated with either 100 μM control or MPS peptide for 48 hours. […] The feasibility of the MPS peptide as an antifibrotic agent in a bleomycin-induced pulmonary fibrosis was tested. […] Saline- and bleomycin-exposed mice then were treated with either PBS or MPS peptide (28 mg/kg) intraperitoneally every other day. […]
sequence,measurement,setting,value
KKKKKRFSFKKSFKLSGFSFKKNKK [MPS peptide],cell motility,[1],reduces
same,proliferation (colony-forming ability),[1],reduces
same,"cancer stemness genes (ABCC8, CDH5, PROM1 (CD133), ALDH1L1, FGFR2)",LG704 oncospheres,decreased
same,phospho-AKT expression,[2],decrease
same,phospho-MARCKS expression,[2],decrease
same,α-SMA expression,[2],decrease
same,Cell viability,[3],very effective in decreasing cell viability
